# Where two headings read alike, the source gives them in different places.
# Legend:
# SETD2(1434-1711) = molecular target: T1, SETD2(1434-1711) (Homo sapiens, UniProt Q9BYW2); assay: SETD2 (1434-1711) assay; assay type: biochemical; conditions: read-out: SETD2 (1434-1711)
# T1 construct: SETD2 (1434-1711) Assay; catalogue N/A
# T1 sequence (Q9BYW2 1434-1711): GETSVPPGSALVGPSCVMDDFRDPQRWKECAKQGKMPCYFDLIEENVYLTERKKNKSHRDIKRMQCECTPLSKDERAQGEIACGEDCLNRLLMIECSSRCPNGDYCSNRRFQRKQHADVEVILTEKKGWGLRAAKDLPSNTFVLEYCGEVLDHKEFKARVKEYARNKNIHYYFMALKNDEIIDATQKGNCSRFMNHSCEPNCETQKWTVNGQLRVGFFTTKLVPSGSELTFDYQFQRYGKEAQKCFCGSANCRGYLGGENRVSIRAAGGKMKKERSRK
# H3K36me3 in A549 cells = assay: In-Cell Western (ICW) assay of SETD2 inhibitors (A549 assay); assay type: cell-based, human; conditions: A549 cells, read-out: SETD2 A549
# How it was run: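 A549 cells seeded at 4,000/well onto compound and incubated 3 days at 37° C. Methanol-fixed cells stained overnight at 4° C with anti-H3K36me3 (1:1000), then IRDye 800CW secondary with DRAQ5 DNA counterstain. Plates read by Licor imaging at 700 and 800 channels.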
SMILES,IC50 (SETD2(1434-1711)) [nM],IC50 (H3K36me3 in A549 cells) [nM],IC50 (H3K36me3 in A549 cells; Homo sapiens) [nM]
Cc1cccc2cc(C(=O)NC3CCN(C(=O)CCCN)CC3C)[nH]c12 (centres unmarked) [compound 614],62700,> 25000,–
Cc1cccc2cc(C(=O)NC(c3cccc(CN(C)C)n3)C3CC3)[nH]c12 (centres unmarked) [compound 615],71100,> 25000,–
Cc1cccc2cc(C(=O)N[C@@H](CO)c3ccccc3)[nH]c12 [compound 616],105000,–,> 25000
Cc1cccc2cc(C(=O)NC3CC(=O)NCC(c4ccccc4)C3)[nH]c12 (centres unmarked) [compound 617],> 200000,> 25000,–
Cc1cccnc1C(NC(=O)c1cc2cccc(Cc3ccn[nH]3)c2[nH]1)C1CC1 (centres unmarked) [compound 618],> 200000,–,> 25000
Cc1cccc2cc(C(=O)N3CCCC34CCc3ccccc34)[nH]c12 (centres unmarked) [compound 619],> 200000,–,> 25000
Cc1cccc2cc(C(=O)NC3CCNC(=O)c4ccccc43)[nH]c12 (centres unmarked) [compound 620],> 200000,> 25000,–
Cc1cccc2cc(C(=O)NCCc3cc(Cl)ccc3N3CCOCC3)[nH]c12 [compound 622],> 200000,> 25000,–
Cc1cccc2cc(C(=O)Nc3cn4ccnc4cn3)[nH]c12 [compound 623],> 200000,> 25000,–
Cc1ccc(F)c2cc(C(=O)N[C@@H]3CCC[C@H](N4CCCNC(=O)C4)C3)[nH]c12 [compound 823],400,400,–
CCOC(=O)N1CCN([C@H]2CCC[C@@H](NC(=O)c3cc4c(F)ccc(C)c4[nH]3)C2)CC1 [compound 824],10,40,–
Cc1ccc(F)c2cc(C(=O)N[C@@H]3CCC[C@H](N4CCN(CC(F)(F)F)CC4)C3)[nH]c12 [compound 826],100,500,–
Cc1ccc(F)c2cc(C(=O)N[C@@H]3CCC[C@H](N4CCN(C(=O)N5CCOCC5)CC4)C3)[nH]c12 [compound 828],20,40,–
CC(=O)NC1CCN([C@H]2CCC[C@@H](NC(=O)c3cc4c(F)ccc(C)c4[nH]3)C2)C1 (some centres unmarked) [compound 833],40,400,–
Cc1ccc(F)c2cc(C(=O)N[C@@H]3CCC[C@H](N4CCN(C(=O)C(C)C)CC4)C3)[nH]c12 [compound 837],20,–,100
CCC(=O)N1CCN([C@H]2CCC[C@@H](NC(=O)c3cc4c(F)ccc(C)c4[nH]3)C2)CC1 [compound 839],10,40,–
CCC(=O)N1CCN([C@@H]2CCC[C@@H](NC(=O)c3cc4c(F)ccc(C)c4[nH]3)C2)CC1 [compound 840],900,> 2000,–
COCCN(C(C)=O)C1CCN(C2CCCC(NC(=O)c3cc4c(F)ccc(C)c4[nH]3)C2)C1 (centres unmarked) [compound 843],200,800,–
COCCN(C(C)=O)C1CCN(C2CCCC(NC(=O)c3cc4c(F)ccc(C)c4[nH]3)C2)C1 (centres unmarked) [compound 844],8500,> 2000,–
COCC(=O)N1CCN([C@H]2CCC[C@@H](NC(=O)c3cc4c(F)ccc(C)c4[nH]3)C2)CC1 [compound 846],20,100,–

SMILES,IC50 (SETD2(1434-1711)) [nM],IC50 (H3K36me3 in A549 cells) [nM],IC50 (H3K36me3 in A549 cells; Homo sapiens) [nM]
COCC(=O)N1CCN([C@@H]2CCC[C@@H](NC(=O)c3cc4c(F)ccc(C)c4[nH]3)C2)CC1 [compound 847],1000,> 2000,–
Cc1ccc(F)c2cc(C(=O)NC3CCCC(N4CCn5ccnc5C4)C3)[nH]c12 (centres unmarked) [compound 852],100,1000,–
Cc1ccc(F)c2cc(C(=O)N[C@@H]3CCC[C@H](N4CCN(C(=O)CN(C)C)CC4)C3)[nH]c12 [compound 854],20,500,–
Cc1ccc(F)c2cc(C(=O)N[C@@H]3CCC[C@@H](N4CCN(C(=O)CN(C)C)CC4)C3)[nH]c12 [compound 855],4700,> 2000,–
CC(=O)N1CCN([C@H]2CCC[C@@H](NC(=O)c3cc4cccc(C)c4[nH]3)C2)CC1 [compound 856],200,300,–
CC(=O)N1CCN([C@@H]2CCC[C@@H](NC(=O)c3cc4cccc(C)c4[nH]3)C2)CC1 [compound 857],7400,> 2000,–
CNC(=O)CN1CCN(C2CCC[C@@H](NC(=O)c3cc4c(F)ccc(C)c4[nH]3)C2)CC1 (some centres unmarked) [compound 858],400,> 2000,–
Cc1ccc(F)c2cc(C(=O)N[C@@H]3CCCC(N4CCN(CC(=O)N(C)C)CC4)C3)[nH]c12 (some centres unmarked) [compound 859],500,1900,–
Cc1ccc(F)c2cc(C(=O)NC3CCCC(N4CCn5cnnc5C4)C3)[nH]c12 (centres unmarked) [compound 860],100,1600,–
Cc1ccc(F)c2cc(C(=O)N[C@@H]3CCC[C@@H](N4CCn5cnnc5C4)C3)[nH]c12 [compound 861],1900,> 2000,–
CC(=O)N(C(C)C)C1CCN(C2CCC[C@@H](NC(=O)c3cc4c(F)ccc(C)c4[nH]3)C2)C1 (some centres unmarked) [compound 862],400,> 2000,–
Cc1ccc(F)c2cc(C(=O)NC3CCCC(N4CCN5C(=O)OCC5C4)C3)[nH]c12 (centres unmarked) [compound 865],30,100,–
Cc1ccc(F)c2cc(C(=O)N[C@@H]3CCC[C@@H](N4CCN5C(=O)OCC5C4)C3)[nH]c12 (some centres unmarked) [compound 866],900,–,> 2000
CC(=O)N1CCC(N2CCCCC(NC(=O)c3cc4c(F)ccc(C)c4[nH]3)C2)CC1 (centres unmarked) [compound 867],400,–,> 2000
Cc1ccc(F)c2cc(C(=O)NC3CCCC(N4CCn5ncnc5C4)C3)[nH]c12 (centres unmarked) [compound 868],100,200,–
Cc1ccc(F)c2cc(C(=O)N[C@@H]3CCC[C@@H](N4CCn5ncnc5C4)C3)[nH]c12 [compound 869],6600,> 2000,–
Cc1ccc(F)c2cc(C(=O)N[C@@H]3CCC[C@H](N4CCN(C(=O)CO)CC4)C3)[nH]c12 [compound 870],10,–,40
CC(=O)N(CCO)C1CCN([C@H]2CCC[C@@H](NC(=O)c3cc4c(F)ccc(C)c4[nH]3)C2)C1 (some centres unmarked) [compound 872],100,–,1200
CC(=O)N(CCO)C1CCN([C@@H]2CCC[C@@H](NC(=O)c3cc4c(F)ccc(C)c4[nH]3)C2)C1 (some centres unmarked) [compound 873],1100,–,> 2000
Cc1ccc(F)c2cc(C(=O)N[C@@H]3CCCC(N4CCC5(CCNC5=O)CC4)C3)[nH]c12 (some centres unmarked) [compound 874],400,–,> 2000

SMILES,IC50 (SETD2(1434-1711)) [nM],IC50 (H3K36me3 in A549 cells) [nM],IC50 (H3K36me3 in A549 cells; Homo sapiens) [nM]
CCOC(=O)N1CCC(N2CCC[C@@H](NC(=O)c3cc4c(F)ccc(C)c4[nH]3)C2)CC1 [compound 875],700,–,> 2000
CCOC(=O)N1CCC(N2CCC[C@H](NC(=O)c3cc4c(F)ccc(C)c4[nH]3)C2)CC1 [compound 876],> 10000,–,> 2000
CC(=O)N1CCN(CC2CCCN(C(=O)c3cc4c(F)ccc(C)c4[nH]3)C2)CC1 (centres unmarked) [compound 877],> 10000,–,> 2000
COCC(=O)N(C)C1CCN([C@H]2CCC[C@@H](NC(=O)c3cc4c(F)ccc(C)c4[nH]3)C2)C1 (some centres unmarked) [compound 880],20,–,100
Cc1ccc(F)c2cc(C(=O)N[C@@H]3CCC[C@H](N4CCCC5(CCNC5=O)C4)C3)[nH]c12 (some centres unmarked) [compound 882],100,–,700
Cc1ccc(F)c2cc(C(=O)N[C@@H]3CCC[C@H](N4CCN(C)C(=O)C4C)C3)[nH]c12 (some centres unmarked) [compound 884],100,–,200
Cc1ccc(F)c2cc(C(=O)N[C@@H]3CCC[C@@H](N4CCN(C)C(=O)C4C)C3)[nH]c12 (some centres unmarked) [compound 885],7600,–,> 2000
CC(=O)N1CCN(C(=O)C2CCCN(C(=O)c3cc4c(F)ccc(C)c4[nH]3)C2)CC1 (centres unmarked) [compound 886],8900,–,> 2000
Cc1ccc(F)c2cc(C(=O)N[C@@H]3CCC[C@H](N4CCCN(C)C(=O)C4)C3)[nH]c12 [compound 887],100,–,300
CC(=O)N1CC2(C1)CN([C@@H]1CCC[C@@H](NC(=O)c3cc4c(F)ccc(C)c4[nH]3)C1)C2 [compound 889],2500,–,> 2000
Cc1ccc(F)c2cc(C(=O)N[C@@H]3CCCC(N4CCC5(CC4)CNC(=O)N5)C3)[nH]c12 (some centres unmarked) [compound 890],100,–,> 2000
Cc1ccc(F)c2cc(C(=O)N[C@@H]3CCCN(C4CCN(C(=O)CN(C)C)CC4)C3)[nH]c12 [compound 891],900,–,> 2000
Cc1ccc(F)c2cc(C(=O)N[C@H]3CCCN(C4CCN(C(=O)CN(C)C)CC4)C3)[nH]c12 [compound 892],> 10000,–,> 2000
Cc1ccc(F)c2cc(C(=O)N[C@@H]3CCCC(N4CCNC(=O)CC4)C3)[nH]c12 (some centres unmarked) [compound 893],100,–,900
Cc1ccc(F)c2cc(C(=O)N[C@@H]3CCCC(N4CCC5(CCC(=O)N5)CC4)C3)[nH]c12 (some centres unmarked) [compound 894],30,–,1400
Cc1ccc(F)c2cc(C(=O)NC3CCCC(N4CCC5(CC4)COC(=O)N5)C3)[nH]c12 (centres unmarked) [compound 895],50,–,1500
Cc1ccc(F)c2cc(C(=O)N[C@@H]3CCCC(N4CCC5(CC4)CNC(=O)C5)C3)[nH]c12 (some centres unmarked) [compound 896],100,–,1800
Cc1ccc(F)c2cc(C(=O)N[C@@H]3CCC[C@H](N4CC5(CNC(=O)C5)C4)C3)[nH]c12 [compound 897],10,–,100

# Source: patent US12116358B2, “Substituted indoles and methods of use thereof” (EPIZYME, INC., priority 2018, dated 2024)
